Marks after values point to notes of the source that are not given here.
Assays:
TGF-beta activity = TGF-beta activity estimated by smooth muscle cell proliferation (CPD with/without neutralising anti-TGF-beta antibody); type: cell-based, human; settings: for TGF-beta activity: ratio of CPD in the absence vs presence of neutralising anti-TGF-beta antibody: 0 μM T, 72 hrs; for effect of lower doses on CPD and hence TGF-beta activity: doses below 10 μM Tamoxifen / below 100 μM aspirin
Experimental: The cells were cultured (37° C.; 5% CO2) in DMEM+20% foetal calf serum (FCS), and subcultured every 5 days at 1:2 dilution, using 0.02% trypsin/EDTA (Gibco).
For the experiments, the cells were subcultured into 12-well cluster plates at 1×10^5 cells/cm^2, and allowed to grow for 24 hrs. […] The cells were then incubated for either 24 hrs or 72 hrs depending on the experiment. All treatment conditions were established in triplicate.
Finally, TGF-beta activity was estimated by the direct effects on smooth muscle cell proliferation within the assay. For these experiments, the test agents were added, in triplicate, to cells both in the presence and absence of a neutralising antibody to TGF-beta (AB-100-NA; R&D Systems at 10 μg/ml, which is able to neutralise at least 25 ng/ml recombinant active TGF-beta1; R&D Systems). After 72 hrs incubation, the cells are washed and then released completely using 0.02% trypsin/EDTA (Gibco) at 37° C. for 10 mins, then counted manually using a haemocytometer. Importantly, the number of cells at 0 hrs must also be determined (using the same counting method, on a replicate set of three wells plated out specifically for the purpose). For each treatment condition, the TGF-beta-dependent inhibition of proliferation is expressed as the fold increase in the cumulative population doubling time in the absence of the neutralising antibody compared to the cumulative population doubling time in the presence of the neutralising antibody. […] Failure of either control led to the repeat of the experiment.

tgfb3 mRNA = tgfb3 mRNA level by quantitative PCR in human aortic vascular smooth muscle cells; type: cell-based; settings: 24 hrs, normalised to TBP, vs vehicle
Experimental: (1995) Cardiovasc. Res. 29:848-55). […] The cells were then incubated for either 24 hrs or 72 hrs depending on the experiment. All treatment conditions were established in triplicate. The level of mRNA for tgfb1, tgfb2 and tgfb3 were estimated by quantitative PCR. The media was removed and RNA was carefully prepared using the Ambion RNAqueous4PCR kit (Ambion#1914) in accordance with the manufacturer's instructions. The purity of the RNA and the quantity was assessed spectrophotometrically. […] This analysis results in both a gel-like image as well as electrophoretic data. Indications of RNA degradation are: (a) decreasing ratio of ribosomal bands (b) additional peaks bellow the ribosomal bands (c) Decrease in overall RNA signal (d) shift towards shorter fragments. […] Next, the RNA was converted to cDNA using the ABI High-Capacity cDNA Archive Kit, in accordance with manufacturer's instructions. The qPCR assay was then set up as follow: all cDNA samples were diluted to 180 μl total volume using Molecular grade water. Samples were vortexed to ensure thorough mixing. cDNA was aliquoted into ABI 384 well plates using a multi-channel pipette, 4.5 μl of sample into each well. Samples were assayed in triplicate (that is, nine determinations in total were made for each condition, being three separate assays on each of three replicate culture wells). The assay mix and Universal Master Mix were prepared and aliquoted across the 384 well plates 5.5 μl in each well, using a single channel pipette. The final composition of each reaction (10 μl) being: Primer/Probe assay mix (×20)=0.5 μl; Universal Master Mix=5 μl; cDNA=4.5 μl. The plates were then heat sealed using Abgene clear seal strong plastic heat seals, and then cycled and scanned using the […] under the following conditions: 95° C. for 10 minutes to activate the AmpliTaq GOLD, then 40 cycles of: 95° C. for 15 Sec (Denaturation), 60° C. for 60 […]). […] Quantitative PCR was performed using several primer/probe sets. […] We used both commercially available primer/probe sets (ABI Taqman pre-validated assays), using both available sets in the ABI database for tgfb1 and tgfb2, as well as the single available set for tgfb3. In addition, we used our own manual design probe/primer set for each of tgfb1, tgfb2 and tgfb3. […] In all quantitative PCR experiments, several additional controls were included: firstly, a control for each sample is run with no reverse transcription to ensure the mRNA sample is not contaminated with genomic DNA (although the manual design probe/primer sets were all selected to cross an exon/exon boundary, ensuring no detectable amplicon is produced from genomic DNA templates). Secondly, a control reaction is run using serial 2-fold dilutions of a standard cDNA preparation (prepared from commercially available IMAGE clones). […] Failure of either control led to the repeat of the entire experiment.

[1] = system: anti-collagen type II antibodies; assay: direct ELISA for anti-collagen type II antibodies in serum of collagen-induced arthritis mice; type: in vivo, mouse; settings: day 39, TMX 1 mg/kg/day, aspirin 30 mg/kg/day
Experimental: (1980) Nature 283:666-8). Adult (12 week old) male DBA/1 mice were divided into groups of six animals. […] Foodpad thickness was determined each day using a digital caliper EC1507 (Moore & Wright) accurate to 0.01 mm. The thickness of each footpad was determined three times on each day by a single operator blind to the treatment condition of the mouse, and the footpad thickness of each mouse on each day was reported as the mean for the three measurements for all four paws. Errors represent the standard error of the mean among the six animals in each group. A direct ELISA for anti-collagen type II antibodies was used as an alternative assessment of the autoimmune response.

[2] = system: anti-carbohydrate antibodies; assay: anti-carbohydrate antibody isotypes by direct ELISA in serum of men with coronary artery disease; type: in vivo, human; settings: 3 months, Tamoxifen 20 mg once daily, aspirin 75 mg once daily, mean ± SD
Experimental: (§1) Patients continued with all other medications (statins, ACE inhibitors, beta blockers, calcium channel blockers, diuretics etc), but no patients were taking warfarin or tirofiban.
The level of anti-carbohydrate antibodies was measured by direct ELISA as previously described (Mosedale et al (2006) J. Immunol. Meth. 309:182-91). […] After a final 3 washes in PBS/Tween and single wash in PBS, 200 μl of K-blue chromogenic substrate was added to each well.
as §1
The level of anti-carbohydrate antibodies was then measured by direct ELISA using the procedure given in Example 5

Compound | TGF-beta activity: ratio of CPD in the absence vs presence of neutralising anti-TGF-beta antibody (TGF-beta activity; 10 μM A) [fold] | TGF-beta activity: ratio of CPD in the absence vs presence of neutralising anti-TGF-beta antibody (TGF-beta activity; 33 μM A) [fold] | TGF-beta activity: ratio of CPD in the absence vs presence of neutralising anti-TGF-beta antibody (TGF-beta activity; 100 μM A) [fold] | TGF-beta activity: ratio of CPD in the absence vs presence of neutralising anti-TGF-beta antibody (TGF-beta activity; 100 μM A, listed as A) [fold] | effect of lower doses on CPD and hence TGF-beta activity (TGF-beta activity) | Level of tgfb3 mRNA, estimated by qPCR (tgfb3 mRNA; 10 μM A) [fold-change] | Level of tgfb3 mRNA, estimated by qPCR (tgfb3 mRNA; 33 μM A) [fold-change] | Level of tgfb3 mRNA, estimated by qPCR (tgfb3 mRNA; 100 μM A) [fold-change] | Pan IgG against bovine collagen II, median concentration in serum [1] [µg/mL] | IgG1 against bovine collagen II, median absorbance from the direct ELISA ([1]; neat serum) | IgG2a against bovine collagen II, median absorbance from the direct ELISA ([1]; neat serum) | IgG2b against bovine collagen II, median absorbance from the direct ELISA ([1]; neat serum) | IgG3 against bovine collagen II, median absorbance from the direct ELISA ([1]; neat serum) | IgG2 titre, change versus baseline [2] | IgG2 Absorbance, change versus baseline ([2]; neat serum) | Level of tgfb3 mRNA, estimated by qPCR (tgfb3 mRNA; 3.3 μM T) [fold-change] | Level of tgfb3 mRNA, estimated by qPCR (tgfb3 mRNA; 10 μM T) [fold-change] | Level of tgfb3 mRNA, estimated by qPCR (tgfb3 mRNA; 33 μM T) [fold-change]
CC(=O)Oc1ccccc1C(=O)O [Aspirin, acetylsalicylic acid] | 1.05 ± 0.09 | 1.13 ± 0.17 | 1.25 | 1.25 ± 0.06 | no statistically significant effect | 1.09 ± 0.08 | 1.06 ± 0.13 | 0.94 ± 0.09 |  |  |  |  |  |  |  |  |  | 
CC/C(=C(\c1ccccc1)c1ccc(OCCN(C)C)cc1)c1ccccc1 [Tamoxifen] |  |  |  |  | no statistically significant effect |  |  |  | 181 | <0.05* | 0.081* | 0.482* | 0.069* | +176% ± 43% | +0.61 ± 0.17 | 0.92 ± 0.16 | 1.19 ± 0.21 | 1.31 ± 0.11
